In US11981658B2, “Substituted aminopyridine compounds as EGFR inhibitors” (YUHAN CORPORATION, priority 2021, dated 2024) one finds IC50 data, which are given here for 11 compounds.

Molecules are shown by their SMILES. Where two headings read alike, the source gives them in different places.

The target in assay [1] is EGFR wildtype (WT) (Homo sapiens, UniProt P00533). Kind of assay: Biochemical EGFR kinase inhibition assay (Lance Ultra TR-FRET), wildtype. The procedure, abridged: (§1)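 In this biochemical assay, phosphorylation after a one-hour room-temperature reaction was detected with europium-labelled anti-phosphopeptide antibody at 2 nM final concentration.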
For orientation: Time-resolved FRET reads energy transfer from a long-lived donor to a nearby acceptor.

For assay [2], the target named is EGFR L858R/T790M/C797S (Homo sapiens, UniProt P00533, C797S/L858R/T790M). The experiment in a line: Biochemical EGFR kinase inhibition assay (Lance Ultra TR-FRET), triple mutant L858R/T790M/C797S. The procedure, abridged:
as §1

For assay [3], the target named is EGFR Del19/C797S (Homo sapiens, UniProt P00533, C797S/DEL746-750). Kind of assay: Biochemical EGFR kinase inhibition assay (Lance Ultra TR-FRET), double mutant del19/C797S. The procedure, abridged:
as §1

Assay [4] concerns the target EGFR L858R/C797S (Homo sapiens, UniProt P00533, C797S/L858R). Kind of assay: Biochemical EGFR kinase inhibition assay (Lance Ultra TR-FRET), double mutant L858R/C797S. The procedure, abridged:
as §1

Assay [5] deals with EGFR Del19/T790M/C797S (Homo sapiens, UniProt P00533, C797S/DEL746-750/T790M). The experiment in a line: Biochemical EGFR kinase inhibition assay (Lance Ultra TR-FRET), triple mutant del19/T790M/C797S. The procedure, abridged:
as §1

Setting [6] is: ATP at Km, read-out: IC50 WT (nM), Km ATP.
Where [7] appears, read: ATP at Km, read-out: IC50 L858R/T790M/C797S (nM), Km ATP.
[8] abbreviates: IC50 L858R/T790M/C797S (nM), 100 μM ATP.
Where [9] appears, read: ATP at Km, read-out: IC50 Del19/C797S (nM), Km ATP.
[10] abbreviates: IC50 Del19/C797S (nM), 100 μM ATP.
The mark [11] stands for this setting: ATP at Km, read-out: IC50 L858R/C797S (nM), Km ATP.
The mark [12] stands for this setting: IC50 L858R/C797S (nM), 100 μM ATP.
Setting [13] is: ATP at Km, read-out: IC50 Del19/T790M/C797S (nM), Km ATP.
Setting [14] is: IC50 Del19/T790M/C797S (nM), 100 μM ATP.
[15] abbreviates: Km ATP, read-out: IC50 WT (nM) Km ATP.
Where [16] appears, read: Km ATP, read-out: IC50 L858R/T790M/C797S (nM) Km ATP.
Setting [17] is: Km ATP, read-out: IC50 Del19/C797S (nM) Km ATP.
Where [18] appears, read: Km ATP, read-out: IC50 L858R/C797S (nM) Km ATP.
Setting [19] is: Km ATP, read-out: IC50 Del19/T790M/C797S (nM) Km ATP.

Chain of EGFR wildtype (WT) (P00533 25-1210): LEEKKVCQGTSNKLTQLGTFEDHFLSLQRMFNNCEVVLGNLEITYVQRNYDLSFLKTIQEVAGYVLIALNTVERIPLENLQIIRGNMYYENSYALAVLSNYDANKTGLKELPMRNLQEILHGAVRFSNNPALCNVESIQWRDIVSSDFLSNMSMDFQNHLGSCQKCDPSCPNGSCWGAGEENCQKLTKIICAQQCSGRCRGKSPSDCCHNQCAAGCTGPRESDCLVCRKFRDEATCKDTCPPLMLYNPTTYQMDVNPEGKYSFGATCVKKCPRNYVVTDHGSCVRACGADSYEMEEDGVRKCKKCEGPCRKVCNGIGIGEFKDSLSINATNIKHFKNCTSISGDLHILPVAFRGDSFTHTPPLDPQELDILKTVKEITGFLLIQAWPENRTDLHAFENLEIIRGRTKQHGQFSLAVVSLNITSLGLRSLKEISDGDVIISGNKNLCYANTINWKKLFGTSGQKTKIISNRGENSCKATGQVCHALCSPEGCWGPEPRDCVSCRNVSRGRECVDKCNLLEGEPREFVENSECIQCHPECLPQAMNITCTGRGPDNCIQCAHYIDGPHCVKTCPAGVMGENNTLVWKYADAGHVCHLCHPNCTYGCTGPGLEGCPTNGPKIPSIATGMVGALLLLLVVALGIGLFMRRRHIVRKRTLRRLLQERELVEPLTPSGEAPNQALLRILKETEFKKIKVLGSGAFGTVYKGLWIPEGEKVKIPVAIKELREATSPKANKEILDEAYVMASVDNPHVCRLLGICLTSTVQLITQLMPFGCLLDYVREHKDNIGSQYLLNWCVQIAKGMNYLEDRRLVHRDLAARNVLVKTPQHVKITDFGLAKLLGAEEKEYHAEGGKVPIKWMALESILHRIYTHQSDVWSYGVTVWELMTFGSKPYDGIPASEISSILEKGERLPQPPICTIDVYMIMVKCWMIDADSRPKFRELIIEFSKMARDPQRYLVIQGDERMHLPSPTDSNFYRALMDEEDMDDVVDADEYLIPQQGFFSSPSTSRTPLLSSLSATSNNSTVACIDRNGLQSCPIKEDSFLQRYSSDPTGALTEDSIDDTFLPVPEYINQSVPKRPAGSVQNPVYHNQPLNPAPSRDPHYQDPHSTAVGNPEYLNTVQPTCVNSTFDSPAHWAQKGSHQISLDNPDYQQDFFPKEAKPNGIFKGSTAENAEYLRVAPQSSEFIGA
Chain of EGFR Del19/T790M/C797S (P00533 with tags, fused parts or gaps DEL746-750/T790M/C797S): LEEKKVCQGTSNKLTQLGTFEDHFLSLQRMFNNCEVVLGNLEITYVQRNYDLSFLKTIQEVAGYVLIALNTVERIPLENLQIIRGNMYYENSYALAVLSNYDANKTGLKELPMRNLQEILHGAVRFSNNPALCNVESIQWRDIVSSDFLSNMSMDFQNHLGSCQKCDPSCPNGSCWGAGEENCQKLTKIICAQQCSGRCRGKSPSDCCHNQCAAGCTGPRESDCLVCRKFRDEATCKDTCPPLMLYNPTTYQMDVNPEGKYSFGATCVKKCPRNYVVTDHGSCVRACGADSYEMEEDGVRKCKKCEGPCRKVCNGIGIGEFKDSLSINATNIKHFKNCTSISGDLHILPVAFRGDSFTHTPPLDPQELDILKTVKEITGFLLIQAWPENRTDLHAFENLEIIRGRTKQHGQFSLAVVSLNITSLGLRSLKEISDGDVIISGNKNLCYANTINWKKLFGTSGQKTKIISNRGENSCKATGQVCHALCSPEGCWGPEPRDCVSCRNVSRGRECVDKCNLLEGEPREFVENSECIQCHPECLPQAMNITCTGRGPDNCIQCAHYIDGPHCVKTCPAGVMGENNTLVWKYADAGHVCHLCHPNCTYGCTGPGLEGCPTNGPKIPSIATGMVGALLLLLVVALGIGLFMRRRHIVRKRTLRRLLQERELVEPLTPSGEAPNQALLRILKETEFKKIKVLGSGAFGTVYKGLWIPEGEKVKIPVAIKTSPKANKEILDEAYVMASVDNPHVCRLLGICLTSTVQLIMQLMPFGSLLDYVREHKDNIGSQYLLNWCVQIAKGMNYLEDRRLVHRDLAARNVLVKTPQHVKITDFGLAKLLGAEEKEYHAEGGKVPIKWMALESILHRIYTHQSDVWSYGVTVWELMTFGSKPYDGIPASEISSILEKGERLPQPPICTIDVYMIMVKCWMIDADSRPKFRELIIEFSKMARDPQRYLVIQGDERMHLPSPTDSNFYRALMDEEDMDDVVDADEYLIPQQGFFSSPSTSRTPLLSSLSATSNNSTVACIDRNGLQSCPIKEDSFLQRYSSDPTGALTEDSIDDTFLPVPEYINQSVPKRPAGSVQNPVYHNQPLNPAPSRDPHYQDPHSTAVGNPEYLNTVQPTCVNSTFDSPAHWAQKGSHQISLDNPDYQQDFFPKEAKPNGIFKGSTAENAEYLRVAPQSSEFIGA
Chain of EGFR L858R/C797S (P00533 25-1210 C797S/L858R): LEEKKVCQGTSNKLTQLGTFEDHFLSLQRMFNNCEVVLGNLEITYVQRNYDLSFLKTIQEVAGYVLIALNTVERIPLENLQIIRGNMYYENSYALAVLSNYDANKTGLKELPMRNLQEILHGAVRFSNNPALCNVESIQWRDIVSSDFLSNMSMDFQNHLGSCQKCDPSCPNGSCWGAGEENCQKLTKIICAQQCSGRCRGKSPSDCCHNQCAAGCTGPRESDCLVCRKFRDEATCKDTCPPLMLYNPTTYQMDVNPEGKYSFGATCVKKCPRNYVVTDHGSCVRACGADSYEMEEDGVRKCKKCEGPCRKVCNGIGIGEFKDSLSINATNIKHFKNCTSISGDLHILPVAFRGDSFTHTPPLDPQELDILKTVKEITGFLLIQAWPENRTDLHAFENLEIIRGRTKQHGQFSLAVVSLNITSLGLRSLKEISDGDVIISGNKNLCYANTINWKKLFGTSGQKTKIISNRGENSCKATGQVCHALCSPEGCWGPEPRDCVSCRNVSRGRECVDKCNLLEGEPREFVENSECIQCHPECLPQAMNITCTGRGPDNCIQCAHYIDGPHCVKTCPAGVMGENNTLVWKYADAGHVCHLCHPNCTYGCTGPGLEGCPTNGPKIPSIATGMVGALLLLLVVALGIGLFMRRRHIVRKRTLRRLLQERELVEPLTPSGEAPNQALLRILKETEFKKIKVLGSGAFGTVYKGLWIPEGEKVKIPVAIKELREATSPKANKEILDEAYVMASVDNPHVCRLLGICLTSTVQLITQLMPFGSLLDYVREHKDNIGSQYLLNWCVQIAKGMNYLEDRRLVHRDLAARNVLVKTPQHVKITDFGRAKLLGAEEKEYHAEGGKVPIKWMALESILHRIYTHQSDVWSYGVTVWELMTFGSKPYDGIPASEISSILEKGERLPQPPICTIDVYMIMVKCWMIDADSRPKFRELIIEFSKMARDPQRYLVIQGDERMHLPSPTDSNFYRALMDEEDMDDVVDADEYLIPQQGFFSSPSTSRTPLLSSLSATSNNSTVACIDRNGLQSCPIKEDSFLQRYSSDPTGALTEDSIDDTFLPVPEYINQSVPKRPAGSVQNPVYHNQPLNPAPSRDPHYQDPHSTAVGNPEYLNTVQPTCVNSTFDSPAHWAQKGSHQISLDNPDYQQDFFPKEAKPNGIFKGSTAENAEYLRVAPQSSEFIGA
Chain of EGFR L858R/T790M/C797S (P00533 25-1210 T790M/C797S/L858R): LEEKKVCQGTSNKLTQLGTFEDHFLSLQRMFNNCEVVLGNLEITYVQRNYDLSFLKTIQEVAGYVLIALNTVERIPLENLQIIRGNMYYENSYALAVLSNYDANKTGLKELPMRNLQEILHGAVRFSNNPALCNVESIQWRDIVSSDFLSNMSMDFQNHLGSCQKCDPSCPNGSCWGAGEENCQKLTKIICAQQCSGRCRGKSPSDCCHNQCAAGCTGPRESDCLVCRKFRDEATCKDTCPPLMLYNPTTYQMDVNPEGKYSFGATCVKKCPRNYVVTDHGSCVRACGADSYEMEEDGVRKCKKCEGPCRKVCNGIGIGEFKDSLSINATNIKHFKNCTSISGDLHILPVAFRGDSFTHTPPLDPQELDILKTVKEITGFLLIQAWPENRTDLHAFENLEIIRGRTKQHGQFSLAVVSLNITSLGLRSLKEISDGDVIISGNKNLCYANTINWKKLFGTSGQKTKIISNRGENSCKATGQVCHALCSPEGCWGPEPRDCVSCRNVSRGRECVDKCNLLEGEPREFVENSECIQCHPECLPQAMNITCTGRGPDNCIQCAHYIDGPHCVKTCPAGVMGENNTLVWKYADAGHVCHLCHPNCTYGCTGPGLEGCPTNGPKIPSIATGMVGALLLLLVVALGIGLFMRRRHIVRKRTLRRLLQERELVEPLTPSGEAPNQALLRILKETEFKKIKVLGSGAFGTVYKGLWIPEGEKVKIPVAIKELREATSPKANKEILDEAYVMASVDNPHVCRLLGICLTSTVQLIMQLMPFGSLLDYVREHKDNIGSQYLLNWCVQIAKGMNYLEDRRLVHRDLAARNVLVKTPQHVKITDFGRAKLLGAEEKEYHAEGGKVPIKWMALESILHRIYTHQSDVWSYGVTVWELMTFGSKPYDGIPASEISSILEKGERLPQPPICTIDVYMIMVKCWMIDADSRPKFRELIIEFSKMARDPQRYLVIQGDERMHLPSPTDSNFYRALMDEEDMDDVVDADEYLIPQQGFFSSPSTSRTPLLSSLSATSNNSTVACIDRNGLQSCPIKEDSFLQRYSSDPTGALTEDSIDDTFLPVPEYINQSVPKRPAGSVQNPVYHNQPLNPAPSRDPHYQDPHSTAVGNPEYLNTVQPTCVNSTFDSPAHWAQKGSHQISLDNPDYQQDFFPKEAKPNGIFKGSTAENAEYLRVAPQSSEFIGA

On to `O=S(=O)(C1CC1)n1cc(-c2nccc(Nc3cc(N[C@H]4CC[C@@H](O)CC4)c(C#CC4CCOCC4)cn3)n2)cn1` [Example 178, (1s,4s)-4-((2-((2-(1-(Cyclopropylsulfonyl)-1H-pyrazol-4-yl)pyrimidin-4-yl)amino)-5-((tetrahydro-2H-pyran-4-yl)ethynyl)pyridin-4-yl)amino)cyclohexan-1-ol], for which the IC50 in assay [1] (setting [6]) worked out at 9.5 nM; in assay [1] (IC50 WT (nM), 100 μM ATP), 8010 nM; in assay [2] (setting [7]) it was 0.2 nM; in assay [2] (setting [8]), 0.3 nM; in assay [3] (setting [9]), 1.1 nM; in assay [3] (setting [10]), 2.3 nM. For the same compound, the IC50 in assay [4] (setting [11]) was found to be 3 nM; in assay [4] (setting [12]), 27 nM; in assay [5] (setting [13]), 0.3 nM; in assay [5] (setting [14]), 0.3 nM.

On to `CC(=O)N1CCC(n2cc(C#Cc3cnc(Nc4ccnc(-c5cnn(S(=O)(=O)C6CC6)c5)n4)cc3N3CCC(C)(CO)CC3)cn2)CC1` [Example 110, 1-(4-(4-((6-((2-(1-(Cyclopropylsulfonyl)-1H-pyrazol-4-yl)pyrimidin-4-yl)amino)-4-(4-(hydroxymethyl)-4-methylpiperidin-1-yl)pyridin-3-yl)ethynyl)-1H-pyrazol-1-yl)piperidin-1-yl)ethan-1-one], for which the IC50 amounted to 296 nM in assay [1] (IC50 WT (nM), 100 μM ATP); 2.8 nM in assay [1] (setting [15]); 1.3 nM in assay [2] (setting [8]); 0.6 nM in assay [2] (setting [16]); 1.7 nM in assay [3] (setting [10]); 1.8 nM in assay [3] (setting [17]). Further, the IC50 in assay [4] (setting [12]) was 2.7 nM; in assay [4] (setting [18]), 0.8 nM; in assay [5] (setting [14]), 1.2 nM; in assay [5] (setting [19]), 1.1 nM.

For the compound `O=S(=O)(C1CC1)n1cc(-c2nccc(Nc3cc(N4CCC(C5(O)CC5)CC4)c(C#Cc4cnn(C(F)(F)F)c4)cn3)n2)cn1` [Example 330, 1-(1-(2-((2-(1-(Cyclopropylsulfonyl)-1H-pyrazol-4-yl)pyrimidin-4-yl)amino)-5-((1-(trifluoromethyl)-1H-pyrazol-4-yl)ethynyl)pyridin-4-yl)piperidin-4-yl)cyclopropan-1-ol], the IC50 in assay [1] (setting [6]) is 272 nM; in assay [1] (IC50 WT (nM), 100 μM ATP), greater than 10000 nM; in assay [2] (setting [7]), 2.2 nM; in assay [2] (setting [8]), 6.2 nM; in assay [3] (setting [9]), 55.5 nM; in assay [3] (setting [10]), 771 nM. Further, the IC50 in assay [4] (setting [11]) was 17.6 nM; in assay [4] (setting [12]), 45.5 nM; in assay [5] (setting [13]), 1.9 nM; in assay [5] (setting [14]) it was 5.2 nM.

For the compound `Cn1cc(C#Cc2cnc(Nc3ccnc(-c4cnn(S(=O)(=O)C5CC5)c4)n3)cc2N2CCC(CO)CC2)c(C(F)(F)F)n1` [Example 90, (1-(2-((2-(1-(Cyclopropylsulfonyl)-1H-pyrazol-4-yl)pyrimidin-4-yl)amino)-5-((1-methyl-3-(trifluoromethyl)-1H-pyrazol-4-yl)ethynyl)pyridin-4-yl)piperidin-4-yl)methanol], the IC50 in assay [1] (IC50 WT (nM), 100 μM ATP) was greater than 10000 nM; in assay [2] (setting [8]), 11.8 nM; in assay [3] (setting [10]) it was 28.5 nM; in assay [4] (setting [12]), 37.2 nM; in assay [5] (setting [14]), 3.6 nM.

As to `CN(C)Cc1ccc(C#Cc2cnc(Nc3ccnc(-c4cnn(S(=O)(=O)C5CC5)c4)n3)cc2N2CCC(C)(CO)CC2)cn1` [Example 278, (1-(2-((2-(1-(Cyclopropylsulfonyl)-1H-pyrazol-4-yl)pyrimidin-4-yl)amino)-5-((6-((dimethylamino)methyl)pyridin-3-yl)ethynyl)pyridin-4-yl)-4-methylpiperidin-4-yl)methanol], the IC50 in assay [1] (setting [6]) was determined as 0.7 nM; in assay [1] (IC50 WT (nM), 100 μM ATP), 108 nM; in assay [2] (setting [7]) it was 0.1 nM; in assay [2] (setting [8]), 0.3 nM; in assay [3] (setting [9]), 0.2 nM; in assay [3] (setting [10]) it was 0.6 nM. Moreover, the IC50 came out at 0.5 nM in assay [4] (setting [11]), 0.5 nM in assay [4] (setting [12]), 0.3 nM in assay [5] (setting [13]) and 0.6 nM in assay [5] (setting [14]).

On to `CCc1cnc(C#Cc2cnc(Nc3ccnc(-c4cnn(S(=O)(=O)C5CC5)c4)n3)cc2N[C@@H]2CCC[C@H](O)C2)s1` [Example 168, (1S,3R)-3-((2-((2-(1-(Cyclopropylsulfonyl)-1H-pyrazol-4-yl)pyrimidin-4-yl)amino)-5-((5-ethylthiazol-2-yl)ethynyl)pyridin-4-yl)amino)cyclohexan-1-ol], for which the IC50 in assay [1] (setting [6]) was 6250 nM; in assay [1] (IC50 WT (nM), 100 μM ATP) it was greater than 10000 nM; in assay [2] (setting [7]), 9.1 nM; in assay [2] (setting [8]), 71.2 nM; in assay [3] (setting [9]), 67.9 nM; in assay [3] (setting [10]) it was 391 nM. The IC50 in assay [4] (setting [11]) amounted to 784 nM; in assay [4] (setting [12]) it was 8370 nM; in assay [5] (setting [13]), 11 nM; in assay [5] (setting [14]) it was 11.8 nM.

On to `CNC1CCN(c2cc(Nc3ccnc(-c4cnn(S(=O)(=O)C5CC5)c4)n3)ncc2C#Cc2ccn(C)n2)CC1` [Example 140, 2-(1-(Cyclopropylsulfonyl)-1H-pyrazol-4-yl)-N-(5-((1-methyl-1H-pyrazol-3-yl)ethynyl)-4-(4-(methylamino)piperidin-1-yl)pyridin-2-yl)pyrimidin-4-amine], for which the IC50 in assay [1] (IC50 WT (nM), 100 μM ATP) was greater than 10000 nM; in assay [1] (setting [15]), 622 nM; in assay [2] (setting [8]), 6.4 nM; in assay [2] (setting [16]), 1.3 nM; in assay [3] (setting [10]) it was 176 nM; in assay [3] (setting [17]) it was 114 nM. In addition, the IC50 turned out to be 887 nM in assay [4] (setting [12]), 23.2 nM in assay [4] (setting [18]), 1.8 nM in assay [5] (setting [14]) and 1.3 nM in assay [5] (setting [19]).

For the compound `Cn1cc(C#Cc2cnc(Nc3ccnc(-c4cnn(S(=O)(=O)C5CC5)c4)n3)cc2N2CCC3(CC2)CC(C)(O)C3)cn1` [Example 13, 7-(2-((2-(1-(Cyclopropylsulfonyl)-1H-pyrazol-4-yl)pyrimidin-4-yl)amino)-5-((1-methyl-1H-pyrazol-4-yl)ethynyl)pyridin-4-yl)-2-methyl-7-azaspiro[3.5]nonan-2-ol], the IC50 is 3090 nM in assay [1] (IC50 WT (nM), 100 μM ATP); 1.1 nM in assay [2] (setting [8]); 3.3 nM in assay [3] (setting [10]); 9.2 nM in assay [4] (setting [12]); 1.4 nM in assay [5] (setting [14]).

In the case of `CC1(CO)CCN(c2cc(Nc3ccnc(-c4cnn(S(=O)(=O)C5CC5)c4)n3)ncc2C#Cc2csc(CN3CCOCC3)n2)CC1` [Example 189, (1-(2-((2-(1-(Cyclopropylsulfonyl)-1H-pyrazol-4-yl)pyrimidin-4-yl)amino)-5-((2-(morpholinomethyl)thiazol-4-yl)ethynyl)pyridin-4-yl)-4-methylpiperidin-4-yl)methanol], the IC50 was 8.4 nM in assay [1] (setting [6]); greater than 10000 nM in assay [1] (IC50 WT (nM), 100 μM ATP); 0.6 nM in assay [2] (setting [7]); 0.9 nM in assay [2] (setting [8]); 2.1 nM in assay [3] (setting [9]); 1.8 nM in assay [3] (setting [10]). For the same compound, the IC50 came out at 2.8 nM in assay [4] (setting [11]), 40.4 nM in assay [4] (setting [12]), 0.7 nM in assay [5] (setting [13]) and 0.7 nM in assay [5] (setting [14]).

`O=S(=O)(C1CC1)n1cc(-c2nccc(Nc3cc(NC4CCC(O)CC4)c(C#CC4CCOC4)cn3)n2)cn1` (stereo not shown) [Example 198, (1s,4s)-4-((2-((2-(1-(Cyclopropylsulfonyl)-1H-pyrazol-4-yl)pyrimidin-4-yl)amino)-5-((tetrahydrofuran-3-yl)ethynyl)pyridin-4-yl)amino)cyclohexan-1-ol]: the IC50 is 25.1 nM in assay [1] (setting [6]); 5980 nM in assay [1] (IC50 WT (nM), 100 μM ATP); 0.2 nM in assay [2] (setting [7]); 0.6 nM in assay [2] (setting [8]); 2.1 nM in assay [3] (setting [9]); 3.6 nM in assay [3] (setting [10]). Besides, the IC50 is 2.5 nM in assay [4] (setting [11]), 50.8 nM in assay [4] (setting [12]), 0.4 nM in assay [5] (setting [13]) and 0.5 nM in assay [5] (setting [14]).

Consider `CC1(CO)CCN(c2cc(Nc3ccnc(-c4cnn(S(=O)(=O)C5CC5)c4)n3)ncc2C#Cc2ccc(CN3CCOCC3)nc2)CC1` [Example 187, (1-(2-((2-(1-(Cyclopropylsulfonyl)-1H-pyrazol-4-yl)pyrimidin-4-yl)amino)-5-((6-(morpholinomethyl)pyridin-3-yl)ethynyl)pyridin-4-yl)-4-methylpiperidin-4-yl)methanol], for which the IC50 in assay [1] (setting [6]) was 3.9 nM; in assay [1] (IC50 WT (nM), 100 μM ATP) it was 932 nM; in assay [2] (setting [7]), 1.2 nM; in assay [2] (setting [8]), 0.8 nM; in assay [3] (setting [9]) it was 1.6 nM; in assay [3] (setting [10]), 0.9 nM. For the same compound, the IC50 in assay [4] (setting [11]) came out at 2 nM; in assay [4] (setting [12]), 8.2 nM; in assay [5] (setting [13]), 0.9 nM; in assay [5] (setting [14]), 0.5 nM.
